Structures can show the parent of a compound that is named as a salt.
What follows are compounds tested on Acinetobacter baumannii ATCC 17961 (assay: Antimicrobial susceptibility testing: 90% growth inhibitory concentration (IC90) determination). Settings: ATCC17961, Acinetobacter baumannii ATCC 17961, Iso-Sensitest broth, read-out: ATCC 17961 IC90.
Assay type: cell-based
Outline: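 Growth was followed kinetically by OD600 at 20-min intervals for 16 h at 35±2 °C, with ~5×10^5 CFU/ml in Iso-Sensitest broth. Compounds were tested as twofold dilutions (e.g. 50–0.097 μM final). The concentration giving 90% inhibition of log-phase growth was reported.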

With `Cc1cc(NC(=O)c2ncc(-c3cn(CC#N)nc3C(F)(F)F)n2C)cc(F)c1C(=O)N1CCN(C(=O)[C@H]2C[C@H](N)C2)CC1` [Example 118, N-[4-[4-(3-aminocyclobutanecarbonyl)piperazine-1-carbonyl]-3-fluoro-5-methylphenyl]-5-[1-(cyanomethyl)-3-(trifluoromethyl)pyrazol-4-yl]-1-methylimidazole-2-carboxamide] as the compound, how does the IC90 read?
Its IC90 is 0.884 µM.

For `Cc1cc(NC(=O)c2ncc(-c3cn(CC#N)nc3C(F)(F)F)n2C)cc(F)c1C(=O)N1CCN(C(=O)[C@H]2CC[C@@H](N)C2)CC1` [Example 119, N-[4-[4-[(1S,3R)-3-aminocyclopentanecarbonyl]piperazine-1-carbonyl]-3-fluoro-5-methylphenyl]-5-[1-(cyanomethyl)-3-(trifluoromethyl)pyrazol-4-yl]-1-methylimidazole-2-carboxamide], which IC90 is on record?
Its IC90 is 0.769 µM.

Which IC90 does the source give for `Cc1cc(NC(=O)c2ncc(-c3cn(CC#N)nc3C(F)(F)F)n2C)cc(F)c1C(=O)N1CCN(C(=O)C2(O)CCCNC2)CC1` (centres unmarked) [Example 120, 5-[1-(cyanomethyl)-3-(trifluoromethyl)pyrazol-4-yl]-N-[3-fluoro-4-[4-(3-hydroxypiperidine-3-carbonyl)piperazine-1-carbonyl]-5-methylphenyl]-1-methylimidazole-2-carboxamide] here?
The IC90 was 2.25 µM.

Which IC90 does the source give for `Cc1cc(NC(=O)c2ncc(-c3cn(CC#N)nc3C(F)(F)F)n2C)cc(F)c1C(=O)N1CCN(C(=O)[C@H](C)N)CC1` [Example 121, N-[4-[4-[(2S)-2-aminopropanoyl]piperazine-1-carbonyl]-3-fluoro-5-methylphenyl]-5-[1-(cyanomethyl)-3-(trifluoromethyl)pyrazol-4-yl]-1-methylimidazole-2-carboxamide] here?
Its IC90 is 0.97 µM.

How did the IC90 turn out when `Cc1cc(NC(=O)c2ncc(-c3cn(CC#N)nc3C(F)(F)F)n2C)cc(F)c1C(=O)N1CCN(C(=O)[C@H]2CCNC2)CC1` [Example 122, 5-[1-(cyanomethyl)-3-(trifluoromethyl)pyrazol-4-yl]-N-[3-fluoro-5-methyl-4-[4-[(3S)-pyrrolidine-3-carbonyl]piperazine-1-carbonyl]phenyl]-1-methylimidazole-2-carboxamide] was run?
Its IC90 is 0.978 µM.

For `Cc1nc(Cn2cc(-c3cnc(C(=O)Nc4ccc(C(=O)NC5CC(N)C5)c(Cl)c4)n3C)c(C(F)(F)F)n2)cs1` (centres unmarked) [Example 124, N-[4-[(3-aminocyclobutyl)carbamoyl]-3-chlorophenyl]-1-methyl-5-[1-[(2-methyl-1,3-thiazol-4-yl)methyl]-3-(trifluoromethyl)pyrazol-4-yl]imidazole-2-carboxamide;hydrochloride], which IC90 is on record?
The IC90 was 1.8 µM.

`Cn1c(-c2cn(C3CCC3)nc2C(F)(F)F)cnc1C(=O)Nc1ccc(C(=O)NC2CC(N)C2)c(Cl)c1` (centres unmarked) [Example 125, N-[4-[(3-aminocyclobutyl)carbamoyl]-3-chlorophenyl]-5-[1-cyclobutyl-3-(trifluoromethyl)pyrazol-4-yl]-1-methylimidazole-2-carboxamide;hydrochloride] was tested. Which IC90 did it give?
The IC90 was 0.48 µM.

For `CCc1cc(NC(=O)c2ncc(-c3cn(CC#N)nc3C(F)(F)F)n2C)ccc1C(=O)N1CCN(C(=O)C2CCN(C)CC2)CC1` [Example 127, 5-[1-(cyanomethyl)-3-(trifluoromethyl)pyrazol-4-yl]-N-[3-ethyl-4-[4-(1-methylpiperidine-4-carbonyl)piperazine-1-carbonyl]phenyl]-1-methylimidazole-2-carboxamide;formic acid], which IC90 is on record?
Its IC90 is 0.681 µM.

Which IC90 does the source give for `CCc1cc(NC(=O)c2ncc(-c3cn(CC#N)nc3C(F)(F)F)n2C)ccc1C(=O)N1CCN(C(=O)C2CCNCC2)CC1` [Example 128, 5-[1-(cyanomethyl)-3-(trifluoromethyl)pyrazol-4-yl]-N-[3-ethyl-4-[4-(piperidine-4-carbonyl)piperazine-1-carbonyl]phenyl]-1-methylimidazole-2-carboxamide;formic acid] here?
Its IC90 is 1.04 µM.

`CCc1cc(NC(=O)c2ncc(-c3cn(CC#N)nc3C(F)(F)F)n2C)ccc1C(=O)N1CCN(C(=O)C2(O)CCNCC2)CC1` [Example 129, 5-[1-(cyanomethyl)-3-(trifluoromethyl)pyrazol-4-yl]-N-[3-ethyl-4-[4-(4-hydroxypiperidine-4-carbonyl)piperazine-1-carbonyl]phenyl]-1-methylimidazole-2-carboxamide;formic acid] was tested. Which IC90 did it give?
The IC90 was 0.949 µM.

`CCc1cc(NC(=O)c2ncc(-c3cn(CC#N)nc3C(F)(F)F)n2C)ccc1C(=O)N1CCN(C(=O)[C@@H]2CCNC2)CC1` [Example 130, 5-[1-(cyanomethyl)-3-(trifluoromethyl)pyrazol-4-yl] N-[3-ethyl-4-[4-[(3R)-pyrrolidine-3-carbonyl]piperazine-1-carbonyl]phenyl]-1-methylimidazole-2-carboxamide;formic acid] was tested. Which IC90 did it give?
The IC90 was 0.947 µM.

`CCc1cc(NC(=O)c2ncc(-c3cn(CC#N)nc3C(F)(F)F)n2C)ccc1C(=O)N1CCN(C(=O)C2CNC2)CC1` [Example 131, N-[4-[4-(azetidine-3-carbonyl)piperazine-1-carbonyl]-3-ethylphenyl]-5-[1-(cyanomethyl)-3-(trifluoromethyl)pyrazol-4-yl]-1-methylimidazole-2-carboxamide;formic acid] was tested. Which IC90 did it give?
Its IC90 is 1.7 µM.

`CCc1cc(NC(=O)c2ncc(-c3cn(CC#N)nc3C(F)(F)F)n2C)ccc1C(=O)N1CCN(C(=O)NCC2(O)CNC2)CC1` [Example 132, 4-[4-[[5-[1-(cyanomethyl)-3-(trifluoromethyl)pyrazol-4-yl]-1-methylimidazole-2-carbonyl]amino]-2-ethylbenzoyl]-N-[(3-hydroxyazetidin-3-yl)methyl]piperazine-1-carboxamide;formic acid] was tested. Which IC90 did it give?
The IC90 was 1.17 µM.

How did the IC90 turn out when `CCc1cc(NC(=O)c2ncc(-c3cn(CC#N)nc3C(F)(F)F)n2C)ccc1C(=O)N1CCN(C(=O)N2CCCC(N)C2)CC1` (centres unmarked) [Example 133, N-[4-[4-(3-aminopiperidine-1-carbonyl)piperazine-1-carbonyl]-3-ethylphenyl]-5-[1-(cyanomethyl)-3-(trifluoromethyl)pyrazol-4-yl]-1-methylimidazole-2-carboxamide;formic acid] was run?
The IC90 was 0.775 µM.

Which IC90 does the source give for `CCc1cc(NC(=O)c2ncc(-c3cn(CC#N)nc3C(F)(F)F)n2C)ccc1C(=O)N1CCN(C(=O)N2CC3(CC(N)C3)C2)CC1` [Example 134, N-[4-[4-(6-amino-2-azaspiro[3.3]heptane-2-carbonyl)piperazine-1-carbonyl]-3-ethylphenyl]-5-[1-(cyanomethyl)-3-(trifluoromethyl)pyrazol-4-yl]-1-methylimidazole-2-carboxamide;formic acid] here?
Its IC90 is 0.86 µM.

`CCc1cc(NC(=O)c2ncc(-c3cn(CC#N)nc3C(F)(F)F)n2C)ccc1C(=O)N1CCN(C(=O)N2CCNC(C)C2)CC1` (centres unmarked) [Example 135, 5-[1-(cyanomethyl)-3-(trifluoromethyl)pyrazol-4-yl]-N-[3-ethyl-4-[4-(3-methylpiperazine-1-carbonyl)piperazine-1-carbonyl]phenyl]-1-methylimidazole-2-carboxamide;formic acid] was tested. Which IC90 did it give?
Its IC90 is 0.885 µM.

`CCc1cc(NC(=O)c2ncc(-c3cn(CC#N)nc3C(F)(F)F)n2C)ccc1C(=O)N1CCN(C(=O)N2CCC(C)(N)CC2)CC1` [Example 136, N-[4-[4-(4-amino-4-methylpiperidine-1-carbonyl)piperazine-1-carbonyl]-3-ethylphenyl]-5-[1-(cyanomethyl)-3-(trifluoromethyl)pyrazol-4-yl]-1-methylimidazole-2-carboxamide;formic acid] was tested. Which IC90 did it give?
The IC90 was 0.741 µM.

How did the IC90 turn out when `CCc1cc(NC(=O)c2ncc(-c3cn(CC#N)nc3C(F)(F)F)n2C)ccc1C(=O)N1CCN(C(=O)N2CCC(CN)C2)CC1` (centres unmarked) [Example 138, N-[4-[4-[3-(aminomethyl)pyrrolidine-1-carbonyl]piperazine-1-carbonyl]-3-ethylphenyl]-5-[1-(cyanomethyl)-3-(trifluoromethyl)pyrazol-4-yl]-1-methylimidazole-2-carboxamide;formic acid] was run?
The IC90 was 0.888 µM.

Which IC90 does the source give for `CCc1cc(NC(=O)c2ncc(-c3cn(CC#N)nc3C(F)(F)F)n2C)ccc1C(=O)N1CCN(C(=O)N2CCCC2CN)CC1` (centres unmarked) [Example 139, N-[4-[4-[2-(aminomethyl)pyrrolidine-1-carbonyl]piperazine-1-carbonyl]-3-ethylphenyl]-5-[1-(cyanomethyl)-3-(trifluoromethyl)pyrazol-4-yl]-1-methylimidazole-2-carboxamide;formic acid] here?
The IC90 was 1.16 µM.

How did the IC90 turn out when `CCc1cc(NC(=O)c2ncc(-c3cn(CC#N)nc3C(F)(F)F)n2C)ccc1C(=O)N1CCN(C(=O)NC2C3CNCC32)CC1` (centres unmarked) [Example 140, N-(3-azabicyclo[3.1.0]hexan-6-yl)-4-[4-[[5-[1-(cyanomethyl)-3-(trifluoromethyl)pyrazol-4-yl]-1-methylimidazole-2-carbonyl]amino]-2-ethylbenzoyl]piperazine-1-carboxamide;formic acid] was run?
The IC90 was 1.05 µM.

For `CCc1cc(NC(=O)c2ncc(-c3cn(CC#N)nc3C(F)(F)F)n2C)ccc1C(=O)N1CCN(C(=O)N2CC3CC2CN3)CC1` (centres unmarked) [Example 141, 5-[1-(cyanomethyl)-3-(trifluoromethyl)pyrazol-4-yl]-N-[4-[4-(2,5-diazabicyclo[2.2.1]heptane-2-carbonyl)piperazine-1-carbonyl]-3-ethylphenyl]-1-methylimidazole-2-carboxamide;formic acid], which IC90 is on record?
The IC90 was 0.887 µM.

How did the IC90 turn out when `Cn1c(-c2cn(CC(F)F)nc2C(F)(F)F)cnc1C(=O)Nc1ccc(C(=O)N2CCN(C(=O)N[C@H]3CCNC3)CC2)c(Cl)c1` [Example 142, 4-[2-chloro-4-[[5-[1-(2,2-difluoroethyl)-3-(trifluoromethyl)pyrazol-4-yl]-1-methylimidazole-2-carbonyl]amino]benzoyl]-N-[(3S)-pyrrolidin-3-yl]piperazine-1-carboxamide;formic acid] was run?
Its IC90 is 0.343 µM.

Same assay, conditions: Acinetobacter baumannii ATCC 17961, Iso-Sensitest broth, read-out: ATCC 17961 IC90

For `C=CCn1cc(-c2cnc(C(=O)Nc3ccc(C(=O)NC4CC(N)C4)c(Cl)c3)n2C)c(C(F)(F)F)n1` (centres unmarked) [Example 126, N-[4-[(3-aminocyclobutyl)carbamoyl]-3-chlorophenyl]-1-methyl-5-[1-prop-2-enyl-3-(trifluoromethyl)pyrazol-4-yl]imidazole-2-carboxamide;2,2,2-trifluoroacetic acid], which IC90 is on record?
Its IC90 is 0.293 µM.
